USRE40086E1, “Method for treating bacterial infection with novel 7-substituted-9-substituted amino 6-demethyl-6-deoxytetracyclines” (Wyeth Holdings Corporation, priority 1991, dated 2008)
In brackets after ≈: the same amount, converted by molar mass.

Key:
Assay type in all cases: cell-based
[1] = test system: S. aureus UBMS 88-5 (tetM); experiment: MIC, agar dilution; conditions: for MIC: S. aureus UBMS 88-5 (tetM)
[2] = test system: S. aureus UBMS 88-4 (Sensitive); experiment: MIC, agar dilution; conditions: for MIC: S. aureus UBMS 88-4 (Sensitive)
[3] = test system: S. aureus UBMS 90-1 (tetM); experiment: MIC, agar dilution; conditions: for MIC: S. aureus UBMS 90-1 (tetM)
[4] = test system: S. aureus UBMS 90-2 (tetM); experiment: MIC, agar dilution; conditions: for MIC: S. aureus UBMS 90-2 (tetM)
[5] = test system: S. aureus UBMS 90-3 (Sensitive); experiment: MIC, agar dilution; conditions: for MIC: S. aureus UBMS 90-3 (Sensitive)
[6] = test system: S. aureus UBMS 88-7 (tetK); experiment: MIC, agar dilution; conditions: for MIC: S. aureus UBMS 88-7 (tetK)
[7] = test system: S. aureus IVES 2943 (meth. resistant); experiment: MIC, agar dilution; conditions: for MIC: S. aureus IVES 2943 (meth. resistant)
[8] = test system: S. aureus IVES 1983 (meth. resistant); experiment: MIC, agar dilution; conditions: for MIC: S. aureus IVES 1983 (meth. resistant)
[9] = test system: S. aureus ATCC 29213 (Sensitive); experiment: MIC, agar dilution; conditions: for MIC: S. aureus ATCC 29213 (Sensitive)
[10] = test system: S. aureus Smith (Sensitive); experiment: MIC, agar dilution; conditions: for MIC: S. aureus Smith (Sensitive)
[11] = test system: S. haemolyticus AVAH 88-3; experiment: MIC, agar dilution; conditions: for MIC: S. haemolyticus AVAH 88-3
[12] = test system: E. faecalis 12201; experiment: MIC, agar dilution; conditions: for MIC: E. faecalis 12201
[13] = test system: E. faecalis ATCC 29212; experiment: MIC, agar dilution; conditions: E. faecalis ATCC 29212
[14] = test system: E. coli UBMS 88-1 (tetB); experiment: MIC, agar dilution; conditions: for MIC: E. coli UBMS 88-1 (tetB)
[15] = test system: E. coli UBMS 89-1 (tetM); experiment: MIC, agar dilution; conditions: for MIC: E. coli UBMS 89-1 (tetM)
[16] = test system: E. coli UBMS 89-2 (Sensitive); experiment: MIC, agar dilution; conditions: for MIC: E. coli UBMS 89-2 (Sensitive)
[17] = test system: E. coli ATCC 25922; experiment: MIC, agar dilution; conditions: E. coli ATCC 25922
[18] = test system: E. coli J3272 Tet sens.; experiment: MIC, agar dilution (Table IA); conditions: unit assumed
[19] = test system: E. coli MC4100 TetB; experiment: MIC, agar dilution (Table IA); conditions: unit assumed
[20] = test system: E. coli PRP1 TetA; experiment: MIC, agar dilution (Table IA); conditions: unit assumed
[21] = test system: E. coli J3272 TetC; experiment: MIC, agar dilution (Table IA); conditions: unit assumed
[22] = test system: E. coli J2175; experiment: MIC, agar dilution (Table IA); conditions: unit assumed
[23] = test system: E. coli BAJ9003; experiment: MIC, agar dilution (Table IA); conditions: unit assumed
[24] = test system: E. coli UBMS 90-5; experiment: MIC, agar dilution (Table IA); conditions: unit assumed
[25] = test system: E. coli #311 (MP); experiment: MIC, agar dilution (Table IA); conditions: unit assumed
[26] = test system: E. coli J3272 TetD; experiment: MIC, agar dilution (Table IA); conditions: unit assumed
[27] = test system: S. mariescens FDOR 8733; experiment: MIC, agar dilution (Table IA); conditions: unit assumed
[28] = test system: X. maltophilia NEMC 87210; experiment: MIC, agar dilution (Table IA); conditions: unit assumed
[29] = test system: Ps. acruginosa ATCC 27853; experiment: MIC, agar dilution (Table IA); conditions: unit assumed
[30] = test system: S. aureus NEMC 8769/89-4; experiment: MIC, agar dilution (Table IA); conditions: unit assumed
[31] = test system: S. aureus ROSE (MP); experiment: MIC, agar dilution (Table IA); conditions: unit assumed
[32] = test system: E. coli UBMS 88-2 (Sensitive); experiment: MIC, agar dilution; conditions: E. coli UBMS 88-2 (Sensitive)

`CN(C)c1cc(NC(=O)CN2CCOCC2)c(O)c2c1CC1CC3[C@H](N(C)C)C(O)=C(C(N)=O)C(=O)[C@@]3(O)C(O)=C1C2=O.Cl.Cl` (stereo partly drawn) [NN, [7S-(7alpha,10aalpha)]-N-[9-(Aminocarbonyl)-4,7-bis(dimethylamino)-5,5a,6,6a,7,10,10a,12-octahydro-1,8,10a,11-tetrahydroxy-10,12-dioxo-2-naphthacenyl)-4-morpholineacetamide dihydrochloride] showed an Antibacterial activity (MIC) ([1]; S. aureus UBMS 88-5 TetM, Table IA, unit assumed) of 4 µg/mL, an Antibacterial activity (MIC) ([2]; S. aureus UBMS 88-4, Table IA, unit assumed) of 2 µg/mL and an Antibacterial activity (MIC) ([3]; S. aureus UBMS 90-1 TetM, Table IA, unit assumed) of 4 µg/mL. It also gave an Antibacterial activity (MIC) ([4]; S. aureus UBMS 90-2 TetM, Table IA, unit assumed) of 2 µg/mL, an Antibacterial activity (MIC) ([5]; S. aureus UBMS 90-3, Table IA, unit assumed) of 2 µg/mL and an Antibacterial activity (MIC) ([6]; S. aureus UBMS 88-7 TetK, Table IA, unit assumed) of 32 µg/mL. The Antibacterial activity (MIC) ([7]; S. aureus IVES 2943, Table IA, unit assumed) was greater than 32 µg/mL, the Antibacterial activity (MIC) ([8]; S. aureus IVES 1983, Table IA, unit assumed) was greater than 32 µg/mL and the Antibacterial activity (MIC) ([9]; S. aureus ATCC 29213, Table IA, unit assumed) was 2 µg/mL. The Antibacterial activity (MIC) ([10]; S. aureus SMITH (MP), Table IA, unit assumed) was 2 µg/mL, the Antibacterial activity (MIC) ([11]; S. hemolyticus AVHAH 88-3, Table IA, unit assumed) was 32 µg/mL and the Antibacterial activity (MIC) ([12]; Enterococcus 12201, Table IA, unit assumed) was 2 µg/mL. The Antibacterial activity (MIC) ([13]; Table IA, unit assumed) was 2 µg/mL, the Antibacterial activity (MIC) ([14]; E. coli UBMS 88-1 TetB, Table IA, unit assumed) was greater than 32 µg/mL and the Antibacterial activity (MIC) ([15]; E. coli UBMS 89-1 TetM, Table IA, unit assumed) was 32 µg/mL. For the same compound, the Antibacterial activity (MIC) ([16]; E. coli UBMS 89-2 Tet Sens., Table IA, unit assumed) was greater than 32 µg/mL, the Antibacterial activity (MIC) ([17]; Table IA, unit assumed) was greater than 32 µg/mL and the Antibacterial activity (MIC) [18] was greater than 32 µg/mL. It also gave an Antibacterial activity (MIC) [19] greater than 32 µg/mL, an Antibacterial activity (MIC) [20] greater than 32 µg/mL and an Antibacterial activity (MIC) [21] greater than 32 µg/mL. For the same compound, the Antibacterial activity (MIC) [22] was greater than 32 µg/mL, the Antibacterial activity (MIC) [23] was 0.5 µg/mL and the Antibacterial activity (MIC) [24] was greater than 32 µg/mL. For the same compound, the Antibacterial activity (MIC) [25] was greater than 32 µg/mL, the Antibacterial activity (MIC) [26] was 32 µg/mL and the Antibacterial activity (MIC) [27] was greater than 32 µg/mL. The Antibacterial activity (MIC) [28] was 32 µg/mL, the Antibacterial activity (MIC) [29] was greater than 32 µg/mL and the Antibacterial activity (MIC) [30] was 0.5 µg/mL. The Antibacterial activity (MIC) [31] was greater than 32 µg/mL.

`CN(C)c1cc(NC(=O)c2cccs2)c(O)c2c1CC1CC3C(N(C)C)C(O)=C(C(N)=O)C(=O)C3(O)C(O)=C1C2=O` (stereo not shown) [Z, 7-(Dimethylamino)-9-[(2-thienylcarbonyl)amino]-6-demethyl-6-deoxytetracycline] showed an MIC [1] of 8 µg/mL (≈ 13.7 µM), an MIC [2] of 8 µg/mL (≈ 13.7 µM) and an MIC [3] of 4 µg/mL (≈ 6.87 µM). It also gave an MIC [4] of 4 µg/mL (≈ 6.87 µM), an MIC [5] of 2 µg/mL (≈ 3.43 µM) and an MIC [6] of 32 µg/mL (≈ 54.9 µM). The MIC [7] was 32 µg/mL (≈ 54.9 µM), the MIC [8] was 32 µg/mL (≈ 54.9 µM) and the MIC [9] was 0.5 µg/mL (≈ 0.858 µM). It also gave an MIC [10] of 2 µg/mL (≈ 3.43 µM), an MIC [11] of 8 µg/mL (≈ 13.7 µM) and an MIC [12] of 8 µg/mL (≈ 13.7 µM). For the same compound, the MIC [13] was 8 µg/mL (≈ 13.7 µM), the MIC [14] was greater than 32 µg/mL and the MIC [32] was greater than 32 µg/mL. For the same compound, the MIC [15] was greater than 32 µg/mL, the MIC [16] was greater than 32 µg/mL and the MIC [17] was 32 µg/mL (≈ 54.9 µM).

Compound “[7S-(7α,10aα) ]-C(9-(Aminocarbonyl)-7-(dimethylamino)-5,5a,6,6a,7,10,10a,12-octahydro-1,8,10a,11-tetrahydroxy-10,12-dioxo-2-naphthacenyl]amino]oxoacetic acid ethyl ester” has an MIC [1] of 32 µg/mL, an MIC [2] of 2 µg/mL and an MIC [3] greater than 32 µg/mL. The MIC [4] was 32 µg/mL, the MIC [5] was 1 µg/mL and the MIC [6] was 8 µg/mL. It also gave an MIC [7] of 32 µg/mL, an MIC [8] greater than 32 µg/mL and an MIC [9] of 0.25 µg/mL. The MIC [10] was 2 µg/mL, the MIC [11] was 4 µg/mL and the MIC [12] was 32 µg/mL. It also gave an MIC [13] of 32 µg/mL, an MIC [14] greater than 32 µg/mL and an MIC [32] greater than 32 µg/mL. The MIC [15] was greater than 32 µg/mL, the MIC [16] was greater than 32 µg/mL and the MIC [17] was 32 µg/mL.
